One series concerns the target T1, Bromelain (Ananas comosus, UniProt P14518).
T1 construct: purchased Boehringer Mannheim AG
T1 sequence (P14518 1-212): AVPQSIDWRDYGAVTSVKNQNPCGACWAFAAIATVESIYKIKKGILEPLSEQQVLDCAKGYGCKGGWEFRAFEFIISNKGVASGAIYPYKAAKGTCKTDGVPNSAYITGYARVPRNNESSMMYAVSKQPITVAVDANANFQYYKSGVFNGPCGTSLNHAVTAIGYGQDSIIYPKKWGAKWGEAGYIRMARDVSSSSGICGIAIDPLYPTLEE
As to the kind of experiment: Bromelain inhibitory activity (casein hydrolysis). It counts as biochemical. The method, then: (§1) The 0.2 ml of a solution of papain (300 μg/ml, Boeringer Mannheim AG), 0.25 ml of 40 mM cysteine solution dissolved in 5 mM EDTA solution adjusted pH to 6.8 with sodium hydroxide and 0.55 ml of the 50 mM phosphate buffer (pH 6.8) with or without inhibitor were mixed and incubated at 40° C. for 10 min., followed by adding 4 ml of 1.5% casein solution dissolved in a 50 mM phosphate buffer (pH 6.8) to carry out a reaction at 40° C. for 15 min. Then, 2 ml of 1.1M trichloroacetic acid is added to terminate the reaction. After being left to stand at room temperature for one hour, the reaction mixture is centrifuged at 3500 rpm for 10 minutes and absorbance (S) of the trichloroacetic acid soluble fraction at 280 mμ is measured. Similarly, absorbance (B) at 280 mμ is measured when no inhibitors are added. The percent inhibition was calculated by the following formula: […]
(§2) The amount of inhibitor for 50% inhibition was expressed as IC50.
(§3) Inhibitory activities against ficin (protein amount: 60 μg, manufactured by Boehringer Mannheim AG) and bromelain (protein content: 100 μg, manufactured by Boehringer Mannheim AG) are also measured by the similar method.

The next series is described as follows: Solubility. It counts as physicochemical. The source says: Insoluble in and pyridine.
The subject of another series is Ficin. Kind of series: Ficin inhibitory activity (casein hydrolysis). It is filed as biochemical. Conditions: enzyme 60 μg protein; substrate casein. The method, then:
as §1, §2, §3

Series [1] concerns production of IgG antibody. As to the kind of experiment: Activity on the production of IgG antibody in mice (passive hemagglutination test). It counts as in vivo, BDF1 strain male mice. Conditions: for IgG antibody titers, individual mice: 200 mg/Kg ip 2 hours before immunization with egg albumin + Freund complete adjuvant, blood after 2 weeks, passive hemagglutination; for Effect on production of IgG antibody (in words): mice, 200 mg/Kg ip. Here is the method:
Activity on the production of IgG antibody was examined by the following method.
Estatin A or Estatin B were administered ip to BDF1 strain male mice weighing 18-22 g (one group 5 mice) at a dose of 200 mg/Kg. Control group (10 mice) received only physiological saline.
After 2 hours from the administration each mouse was immunized by intradermal injection with 0.2 mg/0.1 ml of egg albumin together with equal volume of Freund complete adjuvant into the 2 separate sites of the back of the mice. After 2 weeks blood was collected and antibody titers were determined by passive hemagglutination test using glutalaldehyde as coupling reajent. The results are shown below. ______________________________________ Test drugs IgG antibody titers ______________________________________ Estatin A 12800, 6450, 25600 12800, 12800 Estatin B 6400, 25600, 12800 25000, 12800 Control 12800, 25600, 25600, 12800, 6450 12800, 12800, 12800, 12800, 12800 ______________________________________

Series [2] concerns production of IgE antibody. As to the kind of experiment: Activity on the production of IgE antibody in mice (PCA reaction). It counts as in vivo, BDF1 strain male mice. Conditions: for IgE antibody titers (PCA antibody titers), individual mice: 200 mg/Kg ip 2 hours before immunization with egg albumin + aluminum hydroxide, blood after 14 days, reciprocal of maximum dilution with positive blueing in rats; for Effect on production of IgE antibody (in words): mice, 200 mg/Kg ip. Here is the method: Activity on the production of IgE antibody was examined by the following method.
Estatin A or Estatin B dissolved in physiological saline were administered ip to BDF1 strain male mice weighing 18-22 g (one group 5 mice) at a dose of 200 mg/Kg. Control group (10 mice) received only physiological saline. After 2 hours from the administration, 4 mg of aluminum hydroxide together with 10 μg of egg albumin was administered ip to immunize them. After 14 days from the immunization, blood was collected and IgE antibody titer was assayed by PCA reaction (See "International Archives of Allergy and Applied Immunology" Vol. 48, Page 16, 1975.).
That is, serum samples were serially diluted and injected intradermally into the back of Wistar strain male rats weighing 200-250 g. After 48 hours, 1 ml of 1% Evans blue in physiological saline containing 2 mg of egg albumin was administered iv and rats were killed 30 min. later, and blueing of saline were observed. […] The results are shown below. ______________________________________ PCA Antibody TITERS Test drugs IgE antibody titers ______________________________________ Estatin A <100 <100 <100 <100 <100 Estatin B <100 <100 <100 <100 100 Control 400 800 800 800 800 800 1600 1600 1600 3200 ______________________________________

The target in another series is T2, Pepsin (Sus scrofa, UniProt P00791).
T2 construct: purchased PL Biochemical Co
As to the kind of experiment: Pepsin inhibitory activity (casein hydrolysis). It counts as biochemical. The source says: (§4) The enzyme reactions were all measured according to the prescribed methods.
(§5) (α-chymotrypsin and pepsin used are those manufactured by PL Biochemical Co., and trypsin is that manufactured by Wako Junyaku Co.)

For another series, the target named is T3, α-Chymotrypsin (Bos taurus, UniProt P00766).
T3 construct: purchased PL Biochemical Co
As to the kind of experiment: α-Chymotrypsin inhibitory activity (casein hydrolysis). It counts as biochemical.
Excerpt: as §4, §5

In another series the target is T4, Papain (Carica papaya, UniProt P00784).
T4 construct: purchased Boehringer Mannheim AG
T4 sequence (P00784 134-345): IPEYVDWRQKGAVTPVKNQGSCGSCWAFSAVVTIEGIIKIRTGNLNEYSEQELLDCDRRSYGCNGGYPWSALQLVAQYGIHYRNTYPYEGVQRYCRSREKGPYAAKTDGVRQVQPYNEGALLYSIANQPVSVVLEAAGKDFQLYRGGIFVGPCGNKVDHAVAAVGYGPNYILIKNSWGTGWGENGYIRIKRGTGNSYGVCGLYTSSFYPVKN
As to the kind of experiment: Papain inhibitory activity (casein hydrolysis). It counts as biochemical. The method, then: as §1, §2

Another series has as its system Trypsin. As to the kind of experiment: Trypsin inhibitory activity (casein hydrolysis). It is filed as biochemical. Conditions: enzyme 1000 μg protein; substrate casein.
Excerpt: as §4, §5

Another series relates to mice. As to the kind of experiment: Acute toxicity. It is filed as in vivo. Conditions: ip, 400 mg/Kg.
A short description of the next series: Stability. Conditions: stable at a pH of.

Where “and” joins values, the source holds several entries; their conditions need not be identical. Identical values can stand only once. Like-named read-outs stand apart in the source and are kept apart here.

T2 sequence (P00791 60-385): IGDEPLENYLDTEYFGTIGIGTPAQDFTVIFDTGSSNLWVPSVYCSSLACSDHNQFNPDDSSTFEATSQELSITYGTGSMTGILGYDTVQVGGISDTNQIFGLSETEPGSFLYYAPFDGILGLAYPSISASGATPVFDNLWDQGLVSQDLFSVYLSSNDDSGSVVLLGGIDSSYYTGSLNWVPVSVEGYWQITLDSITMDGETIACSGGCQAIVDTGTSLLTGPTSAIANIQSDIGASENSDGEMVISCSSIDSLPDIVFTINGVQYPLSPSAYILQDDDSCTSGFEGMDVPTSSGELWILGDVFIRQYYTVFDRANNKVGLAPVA

In the case of `N=C(N)NCCCCNC(=O)[C@H](Cc1ccc(O)cc1)NC(=O)[C@H]1O[C@@H]1C(=O)O` [Estatin B, N-[N-(L-3-trans-carboxyoxiran-2-carbonyl)-L-tyrosyl]agmatine], the IC50 at Bromelain is 356 nM. Moreover, in the series “Solubility”, the “Solubility in benzene, chloroform, ethyl acetate and petroleum ether” value is “Insoluble”; the “Solubility in water, acetic acid, dimethyl sulfoxide and pyridine” value is “Soluble”. In the series on Ficin, the “IC50 concentration, Ficin” value came to 0.041 µg/mL. Also, in [1], the “IgG antibody titers, individual mice” value was 6400 and 25600 and 12800 (2×) and 25000; the “Effect on production of IgG antibody (in words)” value is “do not inhibit the production of IgG antibody”. Besides, in series [2], the “IgE antibody titers (PCA antibody titers), individual mice” value is < 100 (4×) and 100; the “Effect on production of IgE antibody (in words)” value was “inhibit the production of IgE antibody”. At Pepsin, the IC50 is over 123000 nM. The same molecule returned an IC50 against α-Chymotrypsin of over 123000 nM. This molecule also had an IC50 against Papain of 66.3 nM. Besides, the “IC50 concentration, Trypsin” value with Trypsin is over 50 µg/mL. Further, in the series on mice, the Acute toxicity entry is given as “no toxic effect”.

On to `N=C(N)NCCCCNC(=O)[C@H](Cc1ccccc1)NC(=O)[C@H]1O[C@@H]1C(=O)O` [Estatin A, N-[N-(L-3-trans-carboxyoxiran-2-carbonyl)-L-phenylalanyl]agmatine], for which the IC50 on Bromelain (enzyme 100 μg protein, substrate casein, read-out: IC50 concentration, Bromelain (converted)) is 370 nM. In addition, in “Solubility”, the “Solubility in benzene, chloroform, ethyl acetate and petroleum ether” value is “Insoluble”; the “Solubility in water, acetic acid, dimethyl sulfoxide and pyridine” value is “Soluble”. In addition, the “IC50 concentration, Ficin” value in the series on Ficin amounted to 0.039 µg/mL. Besides, in series [1], the “IgG antibody titers, individual mice” value is 12800 (3×) and 6450 and 25600; the “Effect on production of IgG antibody (in words)” value is listed as “do not inhibit the production of IgG antibody”. Moreover, in series [2], the “IgE antibody titers (PCA antibody titers), individual mice” value is under 100 and the “Effect on production of IgE antibody (in words)” value was “inhibit the production of IgE antibody”. In addition, the IC50 on Pepsin (enzyme 100 μg protein, substrate casein, read-out: IC50 concentration, Pepsin) is over 128000 nM. In addition, the IC50 on α-Chymotrypsin (enzyme 200 μg protein, substrate casein, read-out: IC50 concentration, α-Chymotrypsin) is over 128000 nM. In addition, on Papain, the IC50 is 66.4 nM. In addition, the “IC50 concentration, Trypsin” value with Trypsin was over 50 µg/mL. Besides, the “Stability: pH at which stable” value in “Stability” was 2-9. Also, in the series on mice, the Acute toxicity entry is reported as “no toxic effect”.

In the case of `N=C(N)NCCCCNC(=O)[C@H](Cc1ccccc1)NC(=O)C1OC1C(=O)O` (mixture of isomers) [N-[N-(D- and L-3-trans-carboxyoxiran-2-carbonyl-L-phenylalanyl]agmatine], the IC50 on Papain (enzyme 60 μg protein, substrate casein, read-out: IC50 concentration, Papain (converted)) was 74.1 nM.
